Assay results from patent US12083191B2, “Composition and methods for imaging cells” (CASE WESTERN RESERVE UNIVERSITY, priority 2009, dated 2024).

Assay: solution-based β-gal activity assay (ONPG hydrolysis)
Assay type: biochemical
Method: For the solution-based activity assay, β-gal fragments were added, either individually or in complementing pairs, to uncoated 96-well microtiter assay plates in equal molar amounts and incubated at room temperature on an orbital rocker for 1 hr. Full-length β-gal (1 mg/ml) was serially diluted to create a standardized concentration curve. At time zero, the assay was initiated by using a 12-channel pipettor to add 20 μl of ONPG (4 mg/ml) to each well of the microplate. In the endpoint assay, the microplates were incubated at room temperature for the appropriate length of time, e.g., 30 min, before the reaction was terminated by the addition of 50 μl of 1 M Na2CO3. Then, the absorbance (420 nm) was read in a Tecan Infinite 200 plate reader (Tecan; San Jose, CA). The absorbance data was transferred to a Microsoft Excel spreadsheet and the amount of ONPG substrate hydrolyzed was calculated.
To test the ability of the split-fragments to spontaneously refold and aggregate into tetramers in solution, complementing pairs of β-gal fragments were combined and assessed in a solution-based activity assay. Levels of active β-gal expression were measured by its catalytic hydrolysis of ortho-nitrophenyl-β-D-galactopyranoside (ONPG), a synthetic chromogenic substrate, to orthonitrophenol (ONP), a yellow product (λmax=420 nm). […]

Full length β-gal: purified full length biotinylated E. coli β-galactosidase prepared in the laboratory, 135 kDa
time at which optimally active (19 hour incubation period, FIG. 7C): 30 min
enzyme activity versus commercially available purchased β-gal (increasing amounts of enzyme, FIG. 7A): virtually identical
